According to PubChem BioAssay AID256 (DTP/NCI, 2004):
Where “and” joins values, the source holds several entries; their conditions need not be identical. Equal entries are not always repeated. Toxic doses and inconclusive results are not listed.

System: CD2F1 mice, L1210 leukemia ip, survival T/C
Experiment: NCI In Vivo Anticancer Drug Screen. Data for tumor model L1210 Leukemia (intraperitoneal) in CD2F1 (CDF1) mice
Conditions: higher = longer survival
Method in brief: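 Each value reflects a quotient of treated over vehicle control outcomes in mice with a transplanted tumor.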

[1] = endpoint: median survival time, dose: 12.0 mg/kg/injection, schedule: Q01DX009 (ip), vehicle: Klucel (hydroxypropylcellulose) (HPC)
[2] = endpoint: median survival time, dose: 25.0 mg/kg/injection, schedule: Q01DX009 (ip), vehicle: Klucel (hydroxypropylcellulose) (HPC)
[3] = endpoint: median survival time, dose: 50.0 mg/kg/injection, schedule: Q01DX009 (ip), vehicle: Klucel (hydroxypropylcellulose) (HPC)
[4] = endpoint: median survival time, dose: 100.0 mg/kg/injection, schedule: Q01DX005 (ip), vehicle: saline with Tween-80
[5] = endpoint: median survival time, dose: 100.0 mg/kg/injection, schedule: Q01DX009 (ip), vehicle: Klucel (hydroxypropylcellulose) (HPC)
[6] = endpoint: mean survival time, dose: 100.0 mg/kg/injection, schedule: Q04DX003 (ip), vehicle: saline with Tween-80
[7] = endpoint: mean survival time, dose: 200.0 mg/kg/injection, schedule: Q04DX003 (ip), vehicle: saline with Tween-80
[8] = endpoint: mean survival time, dose: 400.0 mg/kg/injection, schedule: Q04DX003 (ip), vehicle: saline with Tween-80

SMILES: Nc1cc(Cl)c2[nH]cnc2n1
- T/C (endpoint: mean survival time, dose: 6.25 mg/kg/injection, schedule: Q01DX009 (ip), vehicle: distilled water + Tween-80): 107 % of control
- T/C (endpoint: mean survival time, dose: 6.25 mg/kg/injection, schedule: Q01DX009 (ip), vehicle: water): 102 % of control
- T/C (endpoint: mean survival time, dose: 12.5 mg/kg/injection, schedule: Q01DX009 (ip), vehicle: distilled water + Tween-80): 120 % of control
- T/C (endpoint: mean survival time, dose: 12.5 mg/kg/injection, schedule: Q01DX009 (ip), vehicle: water): 113 % of control
- T/C (endpoint: mean survival time, dose: 25.0 mg/kg/injection, schedule: Q01DX009 (ip), vehicle: distilled water + Tween-80): 150 % of control
- T/C (endpoint: mean survival time, dose: 50.0 mg/kg/injection, schedule: Q01DX009 (ip), vehicle: distilled water + Tween-80): 150 % of control and 164 % of control
- T/C (endpoint: mean survival time, dose: 50.0 mg/kg/injection, schedule: Q04DX003 (ip), vehicle: Klucel (hydroxypropylcellulose) (HPC)): 118 % of control and 110 % of control
- T/C (endpoint: mean survival time, dose: 85.0 mg/kg/injection, schedule: Q04DX003 (ip), vehicle: saline with Tween-80): 108 % of control
- T/C (endpoint: mean survival time, dose: 100.0 mg/kg/injection, schedule: Q01DX009 (ip), vehicle: distilled water + Tween-80): 151 % of control and 185 % of control
- T/C (endpoint: mean survival time, dose: 100.0 mg/kg/injection, schedule: Q04DX003 (ip), vehicle: Klucel (hydroxypropylcellulose) (HPC)): 115 % of control and 109 % of control
- T/C (endpoint: mean survival time, dose: 200.0 mg/kg/injection, schedule: Q01DX009 (ip), vehicle: distilled water + Tween-80): 153 % of control and 228 % of control
- T/C (endpoint: mean survival time, dose: 200.0 mg/kg/injection, schedule: Q04DX003 (ip), vehicle: Klucel (hydroxypropylcellulose) (HPC)): 108 % of control
- T/C (endpoint: mean survival time, dose: 300.0 mg/kg/injection, schedule: Q04DX003 (ip), vehicle: Klucel (hydroxypropylcellulose) (HPC)): 120 % of control and 109 % of control
- T/C (endpoint: mean survival time, dose: 400.0 mg/kg/injection, schedule: Q01DX009 (ip), vehicle: distilled water + Tween-80): 100 % of control
- T/C (endpoint: median survival time, dose: 6.0 mg/kg/injection, schedule: Q01DX009 (ip), vehicle: Klucel (hydroxypropylcellulose) (HPC)): 108 % of control
- T/C [1]: 119 % of control
- T/C (endpoint: median survival time, dose: 25.0 mg/kg/injection, schedule: Q01DX005 (ip), vehicle: saline with Tween-80): 120 % of control
- T/C [2]: 152 % of control
- T/C (endpoint: median survival time, dose: 25.0 mg/kg/injection, schedule: Q01DX009 (ip), vehicle: saline with Tween-80): 153 % of control
- T/C [3]: 172 % of control
- T/C (endpoint: median survival time, dose: 50.0 mg/kg/injection, schedule: Q01DX009 (ip), vehicle: saline with Tween-80): 188 % of control
- T/C [4]: 161 % of control
- T/C [5]: 178 % of control
- T/C (endpoint: median survival time, dose: 100.0 mg/kg/injection, schedule: Q01DX009 (ip), vehicle: saline with Tween-80): 160 % of control
- T/C (endpoint: median survival time, dose: 200.0 mg/kg/injection, schedule: Q01DX005 (ip), vehicle: saline with Tween-80): 159 % of control

SMILES: OCCN(c1ccccc1)C1CCCCC1
- T/C (endpoint: mean survival time, dose: 50.0 mg/kg/injection, schedule: Q01DX009 (ip), vehicle: Klucel (hydroxypropylcellulose) (HPC)): 113 % of control
- T/C (endpoint: mean survival time, dose: 100.0 mg/kg/injection, schedule: Q01DX009 (ip), vehicle: Klucel (hydroxypropylcellulose) (HPC)): 102 % of control
- T/C (endpoint: mean survival time, dose: 200.0 mg/kg/injection, schedule: Q01DX009 (ip), vehicle: Klucel (hydroxypropylcellulose) (HPC)): 106 % of control

SMILES: CC(C)(O)CCC1CC1CCC(C)(C)O (stereo not given)
- T/C [6]: 97 % of control
- T/C [7]: 89 % of control
- T/C [8]: 97 % of control

SMILES: OC1C2CC3C1C3C2O (stereo not given)
- T/C [6]: 94 % of control
- T/C [7]: 97 % of control
- T/C [8]: 105 % of control

SMILES: CSc1nc(Cl)c2cc(Cl)[nH]c2n1
- T/C (endpoint: median survival time, dose: 1.5 mg/kg/injection, schedule: Q01DX009 (ip), vehicle: saline with Tween-80): 104 % of control
- T/C (endpoint: median survival time, dose: 3.0 mg/kg/injection, schedule: Q01DX009 (ip), vehicle: saline with Tween-80): 107 % of control
- T/C (endpoint: median survival time, dose: 6.0 mg/kg/injection, schedule: Q01DX009 (ip), vehicle: saline with Tween-80): 110 % of control
- T/C (endpoint: median survival time, dose: 50.0 mg/kg/injection, schedule: Q01DX005 (ip), vehicle: saline with Tween-80): 100 % of control
- T/C [4]: 101 % of control

SMILES: CCOC(=O)c1ccc(NC(=O)C(Br)C(Br)C(=O)O)cc1 (stereo not given)
- T/C (endpoint: mean survival time, dose: 100.0 mg/kg/injection, schedule: Q01DX001 (ip), vehicle: saline with Tween-80): 110 % of control
- T/C (endpoint: mean survival time, dose: 200.0 mg/kg/injection, schedule: Q01DX001 (ip), vehicle: saline with Tween-80): 110 % of control
- T/C (endpoint: mean survival time, dose: 400.0 mg/kg/injection, schedule: Q01DX001 (ip), vehicle: saline with Tween-80): 108 % of control

SMILES: CC(C)NC(=O)N(CCCCBr)N=O
- T/C [1]: 108 % of control
- T/C [2]: 116 % of control
- T/C [3]: 124 % of control
- T/C [5]: 160 % of control
- T/C (endpoint: median survival time, dose: 200.0 mg/kg/injection, schedule: Q01DX009 (ip), vehicle: Klucel (hydroxypropylcellulose) (HPC)): 112 % of control

SMILES: CCN(CC)CCCC(C)NS(=O)(=O)c1cccc2c(N(C)C)cccc12 (stereo not given)
- T/C (endpoint: mean survival time, dose: 25.0 mg/kg/injection, schedule: Q01DX009 (ip), vehicle: water): 102 % of control
- T/C (endpoint: mean survival time, dose: 50.0 mg/kg/injection, schedule: Q01DX009 (ip), vehicle: water): 98 % of control
- T/C (endpoint: mean survival time, dose: 100.0 mg/kg/injection, schedule: Q01DX009 (ip), vehicle: water): 96 % of control

SMILES: NC1(C(=O)O)CCCC1.[Pb]
- T/C (endpoint: mean survival time, dose: 100.0 mg/kg/injection, schedule: Q01DX001 (ip), vehicle: saline): 90 % of control

SMILES: CC(CCOP(N)(=O)N(CCCl)CCCl)OCc1ccccc1 (stereo not given)
- T/C (endpoint: mean survival time, dose: 25.0 mg/kg/injection, schedule: Q01DX001 (ip), vehicle: other): 98 % of control
- T/C (endpoint: mean survival time, dose: 50.0 mg/kg/injection, schedule: Q01DX001 (ip), vehicle: other): 101 % of control
- T/C (endpoint: mean survival time, dose: 100.0 mg/kg/injection, schedule: Q01DX001 (ip), vehicle: other): 106 % of control
- T/C (endpoint: mean survival time, dose: 200.0 mg/kg/injection, schedule: Q01DX001 (ip), vehicle: other): 115 % of control
- T/C (endpoint: mean survival time, dose: 500.0 mg/kg/injection, schedule: Q01DX001 (ip), vehicle: other): 118 % of control

SMILES: CCCCCCC(=O)[O][Hg][c]1ccccc1
- T/C (endpoint: mean survival time, dose: 9.38 mg/kg/injection, schedule: Q01DX001 (ip), vehicle: saline): 105 % of control
- T/C (endpoint: mean survival time, dose: 18.75 mg/kg/injection, schedule: Q01DX001 (ip), vehicle: saline): 100 % of control
- T/C (endpoint: mean survival time, dose: 37.5 mg/kg/injection, schedule: Q01DX001 (ip), vehicle: saline): 103 % of control

SMILES: Cc1cccc(/C=N/OCCC(C)C)n1
- T/C (endpoint: mean survival time, dose: 50.0 mg/kg/injection, schedule: Q01DX009 (ip), vehicle: saline with Tween-80): 102 % of control
- T/C (endpoint: mean survival time, dose: 100.0 mg/kg/injection, schedule: Q01DX009 (ip), vehicle: saline with Tween-80): 96 % of control
- T/C [6]: 93 % of control
- T/C (endpoint: mean survival time, dose: 200.0 mg/kg/injection, schedule: Q01DX009 (ip), vehicle: saline with Tween-80): 102 % of control
- T/C [7]: 89 % of control

SMILES: CN(C)c1ccc(N=Nc2ccc3c(c2)C(=O)c2ccccc2C3=O)cc1
- T/C (endpoint: mean survival time, dose: 100.0 mg/kg/injection, schedule: Q04DX003 (ip), vehicle: other): 95 % of control
- T/C (endpoint: mean survival time, dose: 200.0 mg/kg/injection, schedule: Q04DX003 (ip), vehicle: other): 93 % of control
- T/C (endpoint: mean survival time, dose: 400.0 mg/kg/injection, schedule: Q04DX003 (ip), vehicle: other): 98 % of control

SMILES: COc1ccc(Nc2ccccc2Cl)c(C(=O)O)c1
- T/C [6]: 98 % of control
- T/C [7]: 102 % of control
- T/C [8]: 102 % of control

SMILES: C/C=C(\C)c1cc(=O)c2c(C)cc3c(c2o1)C(OC)(OC(C)=O)c1c(O)c(C2CC(C)(N(C)C)C(OC(C)=O)C(C)O2)cc(C2CC(N(C)C)C(OC(C)=O)C(C)O2)c1C3=O (stereo not given)
- T/C (endpoint: mean survival time, dose: 50.0 mg/kg/injection, schedule: Q04DX003 (ip), vehicle: saline with Tween-80): 112 % of control
- T/C [6]: 110 % of control
- T/C (endpoint: mean survival time, dose: 100.0 mg/kg/injection, schedule: Q04DX003 (ip), vehicle: saline): 109 % of control
- T/C [7]: 97 % of control
- T/C (endpoint: mean survival time, dose: 200.0 mg/kg/injection, schedule: Q04DX003 (ip), vehicle: saline): 91 % of control
